Legend:
[1] = tested on: MDA-MB-231 breast cancer xenograft; assay: MDA-MB-231 xenograft, weekly Compound 1 30 minutes prior to eribulin, tumor volume; format: in vivo, mice
Protocol: The graphs represent mean tumor volume over time. The y-axis is tumor volume measured in cubic millimeters. The x-axis is time measured in days. The dotted line represents dates of weekly treatment. The error bars represent standard error of the mean.
A highly CDK4/6 dependent breast cancer xenograft model (MDA-MB-231) was employed to determine whether transient CDK4/6 inhibition with Compound 1 would antagonize the intended therapeutic effects. First, MD-MB-231 tumor-bearing mice were treated daily with Compound 1 (IP, 100 mg/kg, n=6-8) for 28 days to confirm the CDK4/6 dependency of the xenograft model. Next, MDA-MB-231 tumor-bearing mice were treated with eribulin (IV, 0.5 mg/kg) with or without Compound 1 (IP, 100 mg/kg) weekly for three weeks, with Compound 1 being given 30 minutes prior to chemotherapy treatment. In all experiments, tumors were measured, and tumor volume was calculated twice weekly. […] Therefore, Compound 1 can be administered to preserve hematopoietic stem and progenitor cell (HSPC) and immune system function during eribulin therapy without antagonizing the intended anti-tumor efficacy of eribulin.

MCF7 tumor cells = assay: EdU incorporation by flow cytometry in MCF7 tumor-bearing mice, tumor cells; format: in vivo; conditions: single dose IP 100 mg/kg
Protocol: (§1) FIG. 2A is a graph depicting the percentage of EdU positive MCF7 tumor cells vs. Edu positive Lin^− bone marrow cells from MCF7 tumor bearing mice treated with Compound 1 at 4, 12, 24, and 48 hours post treatment. MCF7 tumor cells are on the left at each time point while Lin- bone marrow cells are on the right at each time point. FIG. 2B is a graph depicting the percentage of EdU positive MCF7 tumor cells vs. Edu positive Lin^− bone marrow cells from MCF7 tumor bearing mice treated with Compound 1 at 4, 12, 24, and 48 hours post treatment normalized to baseline. MCF7 tumor cells are on the left at each time point while Lin- bone marrow cells are on the right at each time point.
(§2) MCF7 tumor-bearing mice were treated with a single dose of Compound 1 (IP, 100 mg/kg) or vehicle control. After 4, 12, 24, and 48 hours of treatment, animals were pulsed with 5-ethynyl-2′-deoxyuridine (EdU; IP, 200 […]g). Tumors and femurs from each animal were harvested after 4 hours of EdU dosing and processed to single cell suspensions for detection of EdU+ cells by flow cytometry. HSPC in bone marrow is defined as cell populations negative for lineage markers (Mac-1, Gr-1, Ter119, B220, CD4, CD8). […] Students T tests were completed to compare % EdU+ cells (tumor vs bone marrow) at baseline in panel A ****p≤0.0001.

[2] = tested on: lineage negative (Lin−) bone marrow cells (HSPC); assay: EdU incorporation by flow cytometry in MCF7 tumor-bearing mice, bone marrow; format: in vivo; conditions: single dose IP 100 mg/kg
Protocol: as §1, §2

[3] = tested on: MDA-MB-231 breast cancer xenograft; assay: MDA-MB-231 xenograft, daily Compound 1 with weekly eribulin, tumor volume; format: in vivo, mice
Protocol: The y-axis is tumor volume measured in cubic millimeters. The x-axis is time measured in days. The dotted line represents dates of weekly treatment. The error bars represent standard error of the mean.
A highly CDK4/6 dependent breast cancer xenograft model (MDA-MB-231) was employed to determine whether continuous CDK4/6 inhibition with Compound 1 would antagonize the intended therapeutic effects of eribulin. First, MDA-MB-231 tumor-bearing mice were treated daily with Compound 1 (IP, 100 mg/kg, n=10) for 28 days to confirm the CDK4/6 dependency of the xenograft model. Next, MDA-MB-231 tumor-bearing mice were treated with eribulin (IV, 0.5 mg/kg, n=10) weekly for three weeks. Next, MDA-MB-231 tumor-bearing mice were treated daily with Compound 1 (IP, 100 mg/kg, n=10) and with eribulin (IV, 0.5 mg/kg, n=10) weekly for three weeks, with Compound 1 being given 30 minutes prior to chemotherapy treatment on days 1, 8, and 15. In all experiments, tumors were measured, and tumor volume was calculated twice weekly. The dosing schedule is shown below in Table 1. […] Therefore, Compound 1 can be administered to preserve hematopoietic stem and progenitor cell (HSPC) and immune system function during eribulin therapy without antagonizing the intended anti-tumor efficacy of eribulin.

[4] = patients receiving eribulin; cited from earlier work
[5] = MCF7 tumor cells, post treatment
[6] = Lin− bone marrow cells, post treatment

**Q.** With CN1CCN(c2ccc(Nc3ncc4cc5n(c4n3)C3(CCCCC3)CNC5=O)nc2)CC1 [Compound 1, 2′-((5-(4-methylpiperazin-1-yl)pyridin-2-yl)amino)-7′,8′-dihydro-6′H-spiro(cyclohexane-1,9′-pyrazino(1′,2′: 1,5)pyrrolo(2,3-d)pyrimidin)-6′-one] as the compound, how does the “effect of Compound 1 on eribulin therapy (tumor volume)” value ([1]; Compound 1 IP 100 mg/kg 30 minutes prior to eribulin IV 0.5 mg/kg, weekly for three weeks, compared to eribulin alone) read?
**A.** no antagonist effect

**Q.** And the “anti-tumor effect of Compound 1 alone” value ([1]; IP 100 mg/kg, dosed on a similar schedule as in combination with eribulin (weekly for three weeks))?
**A.** did not demonstrate any significant anti-tumor effect

**Q.** What about the “time of maximal cell cycle inhibition (% EdU+ normalized to baseline)” value (MCF7 tumor cells; [5]) of the same compound?
**A.** 24 h

**Q.** What about the “time of reentering the cell cycle” value (MCF7 tumor cells; [5]) of the same compound?
**A.** ≤ 48 h

**Q.** What about the “cell cycle status of tumor cells after Compound 1” value (MCF7 tumor cells; S/G2/M) of the same compound?
**A.** a significant fraction of tumor cells are past the G1 checkpoint

**Q.** What about the “G1-arrest of hematopoietic stem cells” value [2] of the same compound?
**A.** nearly universal G1-arrest

**Q.** And the “time of maximal cell cycle inhibition (% EdU+ normalized to baseline)” value [2, 6]?
**A.** 24 h

**Q.** And the “time of reentering the cell cycle” value [2, 6]?
**A.** ≤ 48 h

**Q.** And the “effect of continuous Compound 1 on eribulin therapy (tumor volume)” value ([3]; Compound 1 IP 100 mg/kg daily for 28 days plus eribulin IV 0.5 mg/kg weekly for three weeks, compared to eribulin alone)?
**A.** synergistic effect

**Q.** What about the “anti-tumor effect of Compound 1 alone” value ([3]; IP 100 mg/kg daily for 28 days) of the same compound?
**A.** did demonstrate a significant anti-tumor effect

**Q.** For C=C1C[C@@H]2CC[C@@]34C[C@H]5O[C@H]6[C@@H](O3)[C@H]3O[C@H](CC[C@@H]3O[C@H]6[C@H]5O4)CC(=O)C[C@@H]3[C@@H](OC)[C@@H](C[C@H](O)CN)O[C@H]3C[C@H]3O[C@@H](CC[C@@H]1O2)C[C@@H](C)C3=C [eribulin], which “incidence of >grade 3 neutropenia” value [4] is on record?
**A.** around 57%

— patent US20210267986A1, “THERAPEUTIC REGIMENS FOR TREATMENT OF CANCER USING ERIBULIN AND SELECTIVE CDK4/6 INHIBITOR COMBINATIONS” (G1 Therapeutics, Inc., priority 2018, published 2021)
